Test results from patent publication US20220056023A1, “PREPARATION AND APPLICATION OF CLASS OF N-CONTAINING HETEROCYCLIC COMPOUNDS HAVING IMMUNOREGULATORY FUNCTION” (SHANGHAI ENNOVABIO PHARMACEUTICALS CO., LTD., priority 2018, published 2022).

Biological target: T1, PD-1/PD-L1 (Homo sapiens, UniProt Q9NZQ7)
T1 construct: purchased Cisbio 63ADK000CPDEC
Experiment: PD-1/PD-L1 homogeneous time-resolved fluorescence (HTRF) binding assay
Settings: Tag 1-PD-L1 / Tag 2-PD-1, Cisbio kit
Text: The PD-1/PD-L1 homogeneous time-resolved fluorescence method is used to detect the binding ability of the compound with PD-L1.
PD-1/PD-L1 binding assay kit (Cisbio, Cat #63ADK000CPDEC) was chosen, which contains two proteins Tag 1-PD-L1 and Tag 2-PD-1, and two antibodies Anti-Tag1-Eu^3+ and Anti-Tag2-XL 665. The principle of detection was: Anti-tag1-Eu^3+ was used as the donor of HTRF, and Anti-Tag2-XL 665 was used as the acceptor of HTRF. When Tag 1-PD-L1 interacts with Tag 2-PD-1, the added HTRF donor and the acceptor are close to each other. After the donor has received the excitation energy, part of the energy was transferred to the acceptor, thus generating 665 nm emission light. […] The inhibitory effect of the compound can be determined by comparing the ratio of 665 nm/620 nm. Tag 1-PD-L1 was diluted with Diluent buffer (cat #62DLBDDF) to a working concentration of 10 nM, Tag 2-PD-1 was diluted with Diluent buffer to a working concentration of 500 nM, Anti-Tag1-Eu^3+ was diluted with detection buffer (cat #62DB1FDG) at a ratio of 1:100, Anti-Tag2-XL 665 was diluted with detection buffer at a ratio of 1:20, and the compound to be detected was diluted with diluent buffer to a final concentration of 2×. Compound (2 μL) was added to each well of a 384-well plate, then Tag 1-PD-L1 (4 μL) and Tag 2-PD-1 (4 μL) were added successively. The mixture was incubated at room temperature for 15 minutes. Then Anti-Tag1-Eu^3+ (5 μL) and Anti-Tag2-XL 665 (5 μL) were added, and the mixture was incubated overnight at room temperature. BioTek Synergy™ Neo2 multifunctional microplate reader was used to detect so as to provide the 665 nm/620 nm ratio. PrismGraphd 5.02 was used to fit the IC50 curve.

T1 sequence (Q9NZQ7 19-238 limits assumed): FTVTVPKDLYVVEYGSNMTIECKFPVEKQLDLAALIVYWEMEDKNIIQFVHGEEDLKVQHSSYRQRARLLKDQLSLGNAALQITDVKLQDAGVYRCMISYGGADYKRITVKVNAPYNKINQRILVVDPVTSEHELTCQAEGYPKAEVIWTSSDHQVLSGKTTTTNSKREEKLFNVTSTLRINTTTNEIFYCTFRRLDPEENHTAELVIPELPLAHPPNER

Row | IC50 [nM] | SMILES
1 | 100 to 1000 | OCCNCc1cnc2nn(-c3cccc(-c4ccccc4)c3Cl)cc2c1 [Compound 1, 2-(((2-(2-Chloro-[1,1′-biphenyl]-3-yl)-2H-pyrazolo[3,4-b]pyridin-5-yl)methyl)amino) ethane-1-ol]
2 | < 100 | COc1cc(CNCCO)cc2c1CN(c1cccc(-c3ccccc3)c1Cl)C2 [Compound 10, 2-(((2-(2-Chloro-[1,1′-biphenyl]-3-yl)-7-methoxyisoindolin-5-yl)methyl)amino)ethane-1-ol]
3 | 100 to 1000 | Cc1c(-c2ccccc2)cccc1-n1cc2cc(CNCCO)cc(C#N)c2n1 [Compound 9, (((2-Hydroxyethyl)amino)methyl)-2-(2-methyl-[1,1′-biphenyl]-3-yl)-2H-indazole-7-carbonitrile]

Second part, the compound before the results:

Row | SMILES | IC50 [nM]
4 | COc1nc(CN2CCCC[C@H]2C(=O)O)nc2c1CN(c1cccc(-c3ccccc3)c1Cl)C2 [Compound 6, (S)-1-((6-(2-Chloro-[1,1′-biphenyl]-3-yl)-4-methoxy-6,7-dihydro-5H-pyrrolo[3,4-d)pyrimidin-2-yl)methyl)piperidine-2-carboxylic acid] | < 100
5 | COc1nc(CNCCO)nc2c1CN(c1cccc(-c3ccccc3)c1Cl)C2 [Compound 5, 2-(((6-(2-Chloro-[1,1′-biphenyl]-3-yl)-4-methoxy-6,7-dihydro-5H-pyrrolo[3,4-d)pyrimidin-2-yl)methyl)amino)ethane-1-ol] | < 100
